In PubChem BioAssay AID1918932 (Molecular Pharmacology Branch, DTP, NCI, 2023):
pIC50: −log10 of the molar value. Where “and” joins values, the source holds several entries; their conditions need not be identical. Equal values may be shown once.

System: 171881-019-R-J1-PDC complex spheroid viability
Assay: Anticancer human tumor 171881-019-R-J1-PDC patient-derived invasive breast carcinoma cell line growth inhibition
Conditions: for viability, T/C: stronger effect = lower value
Excerpt: Multicellular complex tumor spheroid response to LSD1 Inhibitor Iadademstat in combination with a variety of drugs and investigational agents in selected tumor cell lines
The current study was undertaken to assess response to LSD1 inhibitors in combination with standard-of-care drugs and investigational agents in solid tumor complex spheroid models as well as in the K-562 leukemia. Complex spheroids include a stromal component modeled by human endothelial cells (HUVEC) and fibroblasts modeled by human mesenchymal stem cells (MSCs). The concentration ranges selected for each drug and investigational agent were based upon clinically achievable concentrations if the clinical Cmax of the agent was known.
Compounds. The drugs and investigational agents used in this study are listed on Table 1. All of the agents used, including staurosporine (NSC755774) and gemcitabine (NSC613327), were obtained from the Developmental Therapeutics Program, NCI. FDA-approved anticancer drugs are available from the NCI at http://dtp.nci.nih.gov/branches/dscb/oncology_drugset_explanation.html. Drugs and investigational agents were >95% pure by proton nuclear magnetic resonance (NMR) and liquid chromatography/mass spectrometry (LC/MS). Stock solutions were prepared at 400x in DMSO, stored at -70 degrees C, and diluted in fresh medium prior to their use. The final concentration of DMSO in cell culture wells never exceeded 0.25% (v/v). The FDA-approved anticancer drug set is available from the Developmental Therapeutics Program at https://dtp.cancer.gov/organization/dscb/obtaining/available_plates.htm. All drugs and investigational agents were tested over a range starting from a high concentration at or near the clinical Cmax and decreasing in half-log increments. If the clinical Cmax for an agent had not been determined, the highest concentration tested was 10 microM.
Cell Lines. The patient-derived cancer cell (PDC) lines: 292921-168-R-J2-PDC, K24384-001-R-PDC, and 521955-158-R2-J5-PDC pancreatic carcinomas, 556581-035-R-J1 ovarian carcinoma, 324938-238-R-J1-PDC, 855422-203-R-J1-PDC and 883617-216-R-J1-PDC urothelial bladder carcinomas, 743489-274-T-PDC renal cell carcinoma, 138582-R-J1 Merkel cell tumor, K60290-347-R-J1 and K57222-313-R-J1-PDC glioblastomas, 653999-131-R-J2-PDC, LG0703-F948-PDC, and 349418-098-R-PDC non-small cell lung carcinomas, 885512-296-R-J2-PDC, 171881-019-R-J1-PDC breast carcinomas and 186277-243-T-J2-PDC and 233499-124-R-J2-PDC colon carcinomas were obtained from the NCI Patient-Derived Models Repository (PDMR, https://pdmr.cancer.gov). The established cell lines NCI/ADR-RES (RRID:CVCL_14520 and OVCAR-5 (RRID:CVCL_1628) ovarian carcinomas, 786-O (RRID:CVCL_1051) and A498 (RRID:CVCL_A498) renal cell carcinoma, NCI-H211 (ATCC, cat. CRL-5824; RRID:CVCL_1529), NCI-H196 (ATCC, cat. CRL-5823, RRID:CVCL_1509), SW 1271 (ATCC, cat. CRL-2177, RRID:CVCL_1716) and NCI-H1876 (ATCC, cat. CRL-5902, RRID:CVCL_1503) small cell lung carcinomas, MDA-MB-231 (RRID:CVCL_0062) and MDA-MB-468 (RRID:CVCL_0419)breast carcinomas (10-12). Pooled donor human umbilical vein endothelial cells (HUVEC, Lonza, cat. CC-2519) and human mesenchymal stem cells (hMSC, Lonza, cat. PT-2501) were purchased from Lonza (Walkersville, MD).
Cell Culture. All cells were maintained in an incubator at 37 degrees C and 5% CO2 with 95% humidity. The PDC lines were cultured according to standard operating procedures established by the NCI PDMR (https://pdmr.cancer.gov). Briefly all PDCs were thawed and cultured in Matrigel-coated flasks prepared with a working solution of 1X Ham's F-12 nutrient mix, without supplementation (Invitrogen, Waltham, MA, cat. 11765054), 100 U/mL penicillin-streptomycin (Invitrogen, cat. 15140122), and 2.5% Matrigel (Corning Inc., Corning, NY, cat. 354248) for the first three passages. […]
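Further: spheroids exposed to agents for 7 days after 3 days growth.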

| Compound | viability, T/C (compound 0.00316 µM) | viability, T/C (compound 0.01 µM) | viability, T/C (compound 0.0316 µM) | viability, T/C (compound 0.1 µM) | pIC50 (curve of compound) | viability, T/C (compound 0.316 µM) | viability, T/C (compound 1 µM) | viability, T/C (compound 0.00949 µM) | viability, T/C (compound 0.03 µM) | viability, T/C (compound 0.0949 µM) | viability, T/C (compound 0.3 µM) | further results |
| --- | --- | --- | --- | --- | --- | --- | --- | --- | --- | --- | --- | --- |
| CC(C)CC(NC(=O)C(Cc1ccccc1)NC(=O)c1cnccn1)B(O)O (centres undefined) | 0.41% and 17.8% | 0.25% and 10.1% | 0.24% and 12% | 0.17% and 6.28% | > 9.50 | – | – | – | – | – | – | viability, T/C (compound 0.000316 µM): 9.71% and 22.8%; viability, T/C (compound 0.001 µM): 1.12% and 20.1% |
| CC(C)CC(NC(=O)CNC(=O)c1cc(Cl)ccc1Cl)B1OC(=O)CC(CC(=O)O)(C(=O)O)O1 (centres undefined) | 48% and 33.7% | 12.6% and 17.4% | 3.28% and 13.3% | 0.97% and 15.7% | 8.52 and 8.92 | – | – | – | – | – | – | viability, T/C (compound 0.000316 µM): 91.2% and 75.3%; viability, T/C (compound 0.001 µM): 105% and 52.1% |
| CC(C)c1c(-c2ccccc2)nc2c(C#N)c[nH]n2c1=O | – | – | 95.8% and 97.3% | 92.4% and 99.1% | < 5.00 and 5.32 | 87.7% and 97.2% | 89.9% and 88% | – | – | – | – | viability, T/C (compound 3.16 µM): 94% and 67.1%; viability, T/C (compound 10 µM): 95.2% and 19.2% |
| CC1(C)CCC(CN2CCN(c3ccc(C(=O)NS(=O)(=O)c4ccc(NCC5CCOCC5)c([N+](=O)[O-])c4)c(Oc4cnc5[nH]ccc5c4)c3)CC2)=C(c2ccc(Cl)cc2)C1 | – | – | 93.7% and 93.8% | 87% and 96.2% | 5.66 and 5.88 | 93% and 86.7% | 77% and 58.6% | – | – | – | – | viability, T/C (compound 3.16 µM): 37.4% and 21.2%; viability, T/C (compound 10 µM): 3.33% and 4.05% |
| CC1COCCN1c1cc(-c2ccnn2C)c2ccnc(-c3ccn[nH]3)c2n1 (centres undefined) | 55.2% and 49.8% | 41.7% and 43.5% | 15.5% and 21.5% | 7.25% and 9.16% | 8.31 and > 8.50 | 6.43% and 6.74% | 5.29% and 6.58% | – | – | – | – | – |
| CC1COCCN1c1cc(C2(S(C)(=N)=O)CC2)nc(-c2ccnc3[nH]ccc23)n1 (centres undefined) | – | – | 94.6% and 94.9% | 89.5% and 95.9% | 5.79 and 5.88 | 98.2% and 91.3% | 73% and 58.9% | – | – | – | – | viability, T/C (compound 3.16 µM): 17.2% and 21.2%; viability, T/C (compound 10 µM): 8.54% and 9.3% |
| CCN(c1cc(-c2ccc(CN3CCOCC3)cc2)cc(C(=O)NCc2c(C)cc(C)[nH]c2=O)c1C)C1CCOCC1 | – | – | – | – | 5.56 and 5.71 | – | – | 81.1% and 94.4% | 86.6% and 102% | 92.5% and 86.2% | 102% and 82.3% | viability, T/C (compound 0.949 µM): 89.9% and 64.9%; viability, T/C (compound 3 µM): 46.9% and 40.9% |
| CC[C@@]1(O)C(=O)OCc2c1cc1n(c2=O)Cc2cc3c(CN(C)C)c(O)ccc3nc2-1 | 129% and 84.4% | 64.3% and 70.4% | 67.5% and 66% | 46.6% and 37.6% | < 7.00 and 7.26 | – | – | – | – | – | – | viability, T/C (compound 0.000316 µM): 90.9% and 99.1%; viability, T/C (compound 0.001 µM): 116% and 105% |
| CCc1c2c(nc3ccc(O)cc13)-c1cc3c(c(=O)n1C2)COC(=O)[C@]3(O)CC | – | – | – | – | 8.74 and > 9.02 | – | – | 26.6% and 22% | 19.3% and 18.7% | 10.9% and 21% | 6.24% and 21.4% | viability, T/C (compound 0.000949 µM): 59.6% and 33.9%; viability, T/C (compound 0.003 µM): 43% and 40.4% |
| COc1cc(C2c3cc4c(cc3C(OC3OC5COC(C)OC5C(O)C3O)C3COC(=O)C23)OCO4)cc(OC)c1O (centres undefined) | – | – | – | – | 6.50 and 6.11 | – | – | 97.7% and 100% | 121% and 90% | 78.5% and 72.5% | 51.8% and 64.3% | viability, T/C (compound 0.949 µM): 32.6% and 49.3%; viability, T/C (compound 3 µM): 17.2% and 29.7% |
| COc1cc(Nc2ncc3c(n2)-c2ccc(Cl)cc2C(c2c(F)cccc2OC)=NC3)ccc1C(=O)O | 91.6% and 57% | 85.9% and 64.4% | 84.5% and 63.2% | 89% and 58.9% | < 6.00 and 6.42 | 80.6% and 54.1% | 51.5% and 30.1% | – | – | – | – | – |
| COc1ccc([C@@H](O)c2cc(-c3ncnc4cc(N5CCOCC5)ccc34)c(F)cc2Cl)nn1 | – | – | 101% and 98.9% | 128% and 95.7% | 6.10 and 6.22 | 98.3% and 76% | 38.5% and 29.6% | – | – | – | – | viability, T/C (compound 3.16 µM): 7.38% and 8.2%; viability, T/C (compound 10 µM): 6.64% and 11.3% |
| Cn1ncnc1C1c2n[nH]c(=O)c3cc(F)cc(c23)NC1c1ccc(F)cc1 (centres undefined) | 88% and 103% | 102% and 99% | 82.2% and 97.7% | 97.2% and 98.6% | < 7.00 | – | – | – | – | – | – | viability, T/C (compound 0.000316 µM): 92.8% and 99.4%; viability, T/C (compound 0.001 µM): 103% and 104% |
| NC1CCC(NC2CC2c2ccccc2)CC1 (centres undefined) | – | – | – | – | – | 79.8% and 83.8% and 81.9% | – | – | – | – | – | pIC50 (compound alone, run of 02/15/2022): < 5.00 |
| NS(=O)(=O)OCC1CC(n2ccc3c(NC4CCc5ccccc54)ncnc32)CC1O (centres undefined) | – | – | – | – | 7.57 and > 8.02 | – | – | 101% and 40.4% | 44.4% and 34.8% | 25.8% and 27.8% | 24.2% and 25.3% | viability, T/C (compound 0.949 µM): 25.5% and 29.9%; viability, T/C (compound 3 µM): 22.4% and 21.6% |
| Nc1ccccc1NC(=O)c1ccc(CNC(=O)OCc2cccnc2)cc1 | – | – | – | – | 6.56 and 6.27 | – | – | 96.1% and 95.3% | 102% and 98.5% | 135% and 108% | 45.6% and 92.6% | viability, T/C (compound 0.949 µM): 2.72% and 9.58%; viability, T/C (compound 3 µM): 0.41% and 0.94% |
| Nc1ccn(C2OC(CO)C(O)C2(F)F)c(=O)n1 (centres undefined) | – | – | – | – | < 6.52 | – | – | 57.9% and 55.9% | 62.1% and 61.5% | 64.6% and 63.9% | 58.1% and 64.4% | viability, T/C (compound 0.000949 µM): 73.3% and 67.7%; viability, T/C (compound 0.003 µM): 53.2% and 58.2% |
| Nc1ncn(C2CC(O)C(CO)O2)c(=O)n1 (centres undefined) | 109% and 97.4% | 122% and 97.5% | 128% and 95.1% | 130% and 93.4% | < 6.00 | 120% and 91.2% | 105% and 81.2% | – | – | – | – | – |
| Nc1ncn(C2CC(O)C(CO)S2)c(=O)n1 (centres undefined) | – | – | – | – | 6.69 and 6.94 | – | – | 136% and 94.5% | 124% and 76.7% | 73% and 53.8% | 38% and 34.8% | viability, T/C (compound 0.000949 µM): 95.1% and 102%; viability, T/C (compound 0.003 µM): 98% and 105% |
| O=C(C=Cc1cccc(S(=O)(=O)Nc2ccccc2)c1)NO | – | – | – | – | 6.37 and 6.40 | – | – | 95.8% and 103% | 96.6% and 93% | 111% and 99.2% | 72.5% and 65.1% | viability, T/C (compound 0.949 µM): 0.88% and 1.85%; viability, T/C (compound 3 µM): 0.2% and 0.16% |
| O=C(C=Cn1cnc(-c2cc(C(F)(F)F)cc(C(F)(F)F)c2)n1)NNc1cnccn1 | 16.8% and 17.6% | 12.1% and 12.7% | 4.83% and 4.44% | 1.49% and 1.82% | > 8.50 | 1.62% and 1.88% | 1.54% and 1.63% | – | – | – | – | – |
| O=C(c1cc(Cc2n[nH]c(=O)c3ccccc23)ccc1F)N1CCN(C(=O)C2CC2)CC1 | – | – | 90.8% and 96.5% | 94.5% and 103% | < 5.00 and 5.49 | 83.5% and 95.9% | 91.6% and 83% | – | – | – | – | viability, T/C (compound 3.16 µM): 82.8% and 50.5%; viability, T/C (compound 10 µM): 101% and 21.5% |
